ChEMBL document CHEMBL4507268 (2021)

Legend:
Settings in all cases: Compound concentration 1.0 uM
[1] = target: Fibroblast growth factor receptor 3 (Homo sapiens) (UniProt P22607)
[2] = target: Serine/threonine-protein kinase 32A (Homo sapiens) (UniProt Q8WU08)
[3] = target: Serine/threonine-protein kinase pim-1 (Homo sapiens) (UniProt P11309)
[4] = target: PAS domain-containing serine/threonine-protein kinase (Homo sapiens) (UniProt Q96RG2)
[5] = target: T1, Tyrosine-protein kinase JAK3 (Homo sapiens) (UniProt P52333)
T1 sequence (whole entry): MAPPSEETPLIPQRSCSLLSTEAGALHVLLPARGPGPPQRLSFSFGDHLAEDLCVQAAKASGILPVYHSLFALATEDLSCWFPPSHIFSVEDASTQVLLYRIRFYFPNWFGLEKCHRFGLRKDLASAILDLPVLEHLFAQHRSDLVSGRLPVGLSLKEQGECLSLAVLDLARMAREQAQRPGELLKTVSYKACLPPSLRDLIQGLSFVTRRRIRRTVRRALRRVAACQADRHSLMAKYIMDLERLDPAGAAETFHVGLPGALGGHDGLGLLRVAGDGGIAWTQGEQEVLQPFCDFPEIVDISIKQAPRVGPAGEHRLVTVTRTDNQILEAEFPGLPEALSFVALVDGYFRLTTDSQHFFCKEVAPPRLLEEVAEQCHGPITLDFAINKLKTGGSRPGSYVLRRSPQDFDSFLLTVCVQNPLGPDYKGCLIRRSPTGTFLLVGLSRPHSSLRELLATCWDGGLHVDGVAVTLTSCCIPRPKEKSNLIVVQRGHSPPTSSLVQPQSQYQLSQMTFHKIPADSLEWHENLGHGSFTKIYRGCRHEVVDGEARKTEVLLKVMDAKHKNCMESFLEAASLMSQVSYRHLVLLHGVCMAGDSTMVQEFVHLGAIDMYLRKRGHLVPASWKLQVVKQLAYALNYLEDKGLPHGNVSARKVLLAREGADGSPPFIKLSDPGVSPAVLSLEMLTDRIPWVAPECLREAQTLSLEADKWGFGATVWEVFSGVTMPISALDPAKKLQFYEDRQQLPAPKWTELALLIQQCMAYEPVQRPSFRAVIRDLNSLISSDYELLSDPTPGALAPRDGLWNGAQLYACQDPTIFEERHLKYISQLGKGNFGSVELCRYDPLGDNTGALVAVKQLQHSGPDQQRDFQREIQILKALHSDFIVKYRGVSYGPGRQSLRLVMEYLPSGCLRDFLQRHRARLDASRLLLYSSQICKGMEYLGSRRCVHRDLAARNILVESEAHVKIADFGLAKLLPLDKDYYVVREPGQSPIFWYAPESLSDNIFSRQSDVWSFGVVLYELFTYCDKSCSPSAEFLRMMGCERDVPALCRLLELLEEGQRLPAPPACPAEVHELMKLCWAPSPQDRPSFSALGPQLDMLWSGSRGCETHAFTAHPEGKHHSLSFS

[6] = target: Cyclin-dependent kinase-like 3 (Homo sapiens) (UniProt Q8IVW4)
[7] = target: Testis-specific serine/threonine-protein kinase 2 (Homo sapiens) (UniProt Q96PF2)
[8] = target: T2, Muscle, skeletal receptor tyrosine-protein kinase (Homo sapiens) (UniProt O15146)
T2 sequence (whole entry): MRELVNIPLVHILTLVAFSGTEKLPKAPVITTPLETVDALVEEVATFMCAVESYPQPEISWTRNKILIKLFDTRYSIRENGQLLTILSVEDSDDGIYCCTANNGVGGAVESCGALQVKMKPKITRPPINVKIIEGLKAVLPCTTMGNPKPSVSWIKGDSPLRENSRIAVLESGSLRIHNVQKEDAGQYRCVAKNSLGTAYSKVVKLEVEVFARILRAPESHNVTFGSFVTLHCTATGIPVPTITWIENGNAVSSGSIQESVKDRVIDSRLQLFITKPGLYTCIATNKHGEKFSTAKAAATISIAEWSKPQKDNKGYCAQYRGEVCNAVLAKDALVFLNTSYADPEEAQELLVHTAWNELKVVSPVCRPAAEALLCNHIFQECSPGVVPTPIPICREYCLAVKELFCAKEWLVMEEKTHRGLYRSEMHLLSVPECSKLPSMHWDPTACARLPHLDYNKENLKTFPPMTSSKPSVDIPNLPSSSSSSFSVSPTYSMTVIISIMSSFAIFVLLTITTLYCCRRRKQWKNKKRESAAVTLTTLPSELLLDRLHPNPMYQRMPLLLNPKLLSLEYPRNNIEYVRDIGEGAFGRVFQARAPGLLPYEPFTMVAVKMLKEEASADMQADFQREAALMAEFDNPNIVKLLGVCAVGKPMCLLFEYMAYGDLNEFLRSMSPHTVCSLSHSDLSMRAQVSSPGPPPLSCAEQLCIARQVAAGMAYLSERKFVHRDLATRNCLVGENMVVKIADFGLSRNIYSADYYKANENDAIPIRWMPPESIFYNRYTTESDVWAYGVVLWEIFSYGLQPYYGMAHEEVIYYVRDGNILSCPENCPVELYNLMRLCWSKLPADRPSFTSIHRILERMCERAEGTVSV

[9] = target: Cyclin-dependent kinase 2/cyclin E (Homo sapiens) (UniProt P24864+P24941+O96020)
[10] = target: 5'-AMP-activated protein kinase catalytic subunit alpha-1 (Homo sapiens) (UniProt Q13131)
[11] = target: Cyclin-dependent kinase 5/CDK5 activator 1 (Homo sapiens) (UniProt Q00535+Q15078)
[12] = target: Serine/threonine-protein kinase WNK1 (Homo sapiens) (UniProt Q9H4A3)
[13] = target: CDK4/Cyclin D3 (Homo sapiens) (UniProt P11802+P30281)
[14] = target: Mitogen-activated protein kinase kinase kinase 20 (Homo sapiens) (UniProt Q9NYL2)
[15] = target: Serine/threonine-protein kinase MARK1 (Homo sapiens) (UniProt Q9P0L2)
[16] = target: Eukaryotic translation initiation factor 2-alpha kinase 1 (Homo sapiens) (UniProt Q9BQI3)
[17] = target: Mitogen-activated protein kinase kinase kinase 11 (Homo sapiens) (UniProt Q16584)
[18] = target: Rho-associated protein kinase 1 (Homo sapiens) (UniProt Q13464)

Measured: % residual kinase activity

Cyclin-dependent kinase 5/CDK5 activator 1 (Homo sapiens), sequence (Q00535 whole entry): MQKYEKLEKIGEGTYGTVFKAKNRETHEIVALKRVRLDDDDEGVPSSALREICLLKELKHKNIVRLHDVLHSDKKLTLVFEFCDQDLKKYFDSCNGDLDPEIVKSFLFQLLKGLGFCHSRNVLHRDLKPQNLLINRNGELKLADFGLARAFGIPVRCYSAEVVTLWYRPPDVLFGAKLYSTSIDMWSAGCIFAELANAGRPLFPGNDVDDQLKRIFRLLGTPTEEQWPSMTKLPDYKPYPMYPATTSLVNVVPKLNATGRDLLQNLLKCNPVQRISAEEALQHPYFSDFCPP
Cyclin-dependent kinase 5/CDK5 activator 1 (Homo sapiens), sequence (Q15078 99-307 partner limits assumed): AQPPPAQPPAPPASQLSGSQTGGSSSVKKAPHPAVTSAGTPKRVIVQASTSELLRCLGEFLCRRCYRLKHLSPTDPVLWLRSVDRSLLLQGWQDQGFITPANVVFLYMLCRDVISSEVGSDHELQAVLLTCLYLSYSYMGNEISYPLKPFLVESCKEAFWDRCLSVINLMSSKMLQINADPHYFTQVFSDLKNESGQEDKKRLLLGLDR
Mitogen-activated protein kinase kinase kinase 20 (Homo sapiens), sequence (Q9NYL2 2-800 limits assumed): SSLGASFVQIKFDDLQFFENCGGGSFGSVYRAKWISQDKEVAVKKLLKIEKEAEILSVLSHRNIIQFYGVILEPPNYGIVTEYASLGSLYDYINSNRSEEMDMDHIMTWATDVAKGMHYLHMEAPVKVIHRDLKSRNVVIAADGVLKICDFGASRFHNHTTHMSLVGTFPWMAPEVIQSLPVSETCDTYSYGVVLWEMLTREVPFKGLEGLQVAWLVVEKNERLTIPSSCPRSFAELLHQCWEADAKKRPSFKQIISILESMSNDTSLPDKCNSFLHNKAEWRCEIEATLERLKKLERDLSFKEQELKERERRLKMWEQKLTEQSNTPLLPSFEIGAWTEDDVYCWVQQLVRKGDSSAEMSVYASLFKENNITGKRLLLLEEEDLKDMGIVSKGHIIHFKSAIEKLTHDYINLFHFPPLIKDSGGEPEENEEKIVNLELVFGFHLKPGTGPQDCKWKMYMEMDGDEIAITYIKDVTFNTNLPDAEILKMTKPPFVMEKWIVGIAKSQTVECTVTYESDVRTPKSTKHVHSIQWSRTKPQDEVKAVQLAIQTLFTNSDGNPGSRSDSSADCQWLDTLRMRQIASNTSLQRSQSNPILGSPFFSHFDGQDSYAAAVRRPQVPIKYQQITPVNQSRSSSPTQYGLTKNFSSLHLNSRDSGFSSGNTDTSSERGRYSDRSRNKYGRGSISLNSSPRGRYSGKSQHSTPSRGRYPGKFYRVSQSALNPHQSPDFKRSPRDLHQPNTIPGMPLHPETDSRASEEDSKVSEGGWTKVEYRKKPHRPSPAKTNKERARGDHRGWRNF
Testis-specific serine/threonine-protein kinase 2 (Homo sapiens), sequence (Q96PF2 whole entry): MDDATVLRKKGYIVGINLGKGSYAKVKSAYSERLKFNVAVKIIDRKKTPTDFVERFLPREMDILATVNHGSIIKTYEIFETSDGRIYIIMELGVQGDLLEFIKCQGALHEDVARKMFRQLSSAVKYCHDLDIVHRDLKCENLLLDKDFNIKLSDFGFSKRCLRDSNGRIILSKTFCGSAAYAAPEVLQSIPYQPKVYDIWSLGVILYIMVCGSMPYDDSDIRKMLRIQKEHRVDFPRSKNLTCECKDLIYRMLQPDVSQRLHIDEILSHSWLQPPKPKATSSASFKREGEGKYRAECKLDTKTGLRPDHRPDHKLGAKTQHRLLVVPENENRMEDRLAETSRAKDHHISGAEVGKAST
5'-AMP-activated protein kinase catalytic subunit alpha-1 (Homo sapiens), sequence (Q13131 whole entry, looked up): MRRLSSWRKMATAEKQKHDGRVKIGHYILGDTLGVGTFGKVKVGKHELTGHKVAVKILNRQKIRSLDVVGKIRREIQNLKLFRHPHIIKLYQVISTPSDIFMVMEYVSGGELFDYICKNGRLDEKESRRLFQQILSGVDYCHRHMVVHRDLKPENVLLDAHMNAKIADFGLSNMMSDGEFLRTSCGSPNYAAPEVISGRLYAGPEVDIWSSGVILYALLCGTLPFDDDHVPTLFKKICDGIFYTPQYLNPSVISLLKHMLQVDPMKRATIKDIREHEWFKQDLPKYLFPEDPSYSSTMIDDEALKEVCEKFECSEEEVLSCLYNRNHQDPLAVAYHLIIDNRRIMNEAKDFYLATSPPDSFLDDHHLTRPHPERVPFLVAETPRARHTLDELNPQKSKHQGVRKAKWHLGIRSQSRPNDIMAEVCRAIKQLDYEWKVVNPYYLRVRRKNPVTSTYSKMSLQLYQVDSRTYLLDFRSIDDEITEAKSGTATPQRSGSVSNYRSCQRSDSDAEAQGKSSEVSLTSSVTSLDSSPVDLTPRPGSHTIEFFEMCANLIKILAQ
Serine/threonine-protein kinase 32A (Homo sapiens), sequence (Q8WU08 whole entry): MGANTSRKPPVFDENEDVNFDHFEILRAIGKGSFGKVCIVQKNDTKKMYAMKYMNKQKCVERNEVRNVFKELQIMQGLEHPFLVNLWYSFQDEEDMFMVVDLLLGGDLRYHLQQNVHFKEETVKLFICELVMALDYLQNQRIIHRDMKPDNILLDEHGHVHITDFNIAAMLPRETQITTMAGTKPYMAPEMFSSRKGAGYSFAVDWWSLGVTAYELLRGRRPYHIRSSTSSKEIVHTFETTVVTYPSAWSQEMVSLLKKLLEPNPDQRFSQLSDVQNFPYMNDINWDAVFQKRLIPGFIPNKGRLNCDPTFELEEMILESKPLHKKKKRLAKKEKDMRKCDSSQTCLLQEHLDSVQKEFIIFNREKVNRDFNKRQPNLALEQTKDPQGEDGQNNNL
Rho-associated protein kinase 1 (Homo sapiens), sequence (Q13464 2-1354 limits assumed): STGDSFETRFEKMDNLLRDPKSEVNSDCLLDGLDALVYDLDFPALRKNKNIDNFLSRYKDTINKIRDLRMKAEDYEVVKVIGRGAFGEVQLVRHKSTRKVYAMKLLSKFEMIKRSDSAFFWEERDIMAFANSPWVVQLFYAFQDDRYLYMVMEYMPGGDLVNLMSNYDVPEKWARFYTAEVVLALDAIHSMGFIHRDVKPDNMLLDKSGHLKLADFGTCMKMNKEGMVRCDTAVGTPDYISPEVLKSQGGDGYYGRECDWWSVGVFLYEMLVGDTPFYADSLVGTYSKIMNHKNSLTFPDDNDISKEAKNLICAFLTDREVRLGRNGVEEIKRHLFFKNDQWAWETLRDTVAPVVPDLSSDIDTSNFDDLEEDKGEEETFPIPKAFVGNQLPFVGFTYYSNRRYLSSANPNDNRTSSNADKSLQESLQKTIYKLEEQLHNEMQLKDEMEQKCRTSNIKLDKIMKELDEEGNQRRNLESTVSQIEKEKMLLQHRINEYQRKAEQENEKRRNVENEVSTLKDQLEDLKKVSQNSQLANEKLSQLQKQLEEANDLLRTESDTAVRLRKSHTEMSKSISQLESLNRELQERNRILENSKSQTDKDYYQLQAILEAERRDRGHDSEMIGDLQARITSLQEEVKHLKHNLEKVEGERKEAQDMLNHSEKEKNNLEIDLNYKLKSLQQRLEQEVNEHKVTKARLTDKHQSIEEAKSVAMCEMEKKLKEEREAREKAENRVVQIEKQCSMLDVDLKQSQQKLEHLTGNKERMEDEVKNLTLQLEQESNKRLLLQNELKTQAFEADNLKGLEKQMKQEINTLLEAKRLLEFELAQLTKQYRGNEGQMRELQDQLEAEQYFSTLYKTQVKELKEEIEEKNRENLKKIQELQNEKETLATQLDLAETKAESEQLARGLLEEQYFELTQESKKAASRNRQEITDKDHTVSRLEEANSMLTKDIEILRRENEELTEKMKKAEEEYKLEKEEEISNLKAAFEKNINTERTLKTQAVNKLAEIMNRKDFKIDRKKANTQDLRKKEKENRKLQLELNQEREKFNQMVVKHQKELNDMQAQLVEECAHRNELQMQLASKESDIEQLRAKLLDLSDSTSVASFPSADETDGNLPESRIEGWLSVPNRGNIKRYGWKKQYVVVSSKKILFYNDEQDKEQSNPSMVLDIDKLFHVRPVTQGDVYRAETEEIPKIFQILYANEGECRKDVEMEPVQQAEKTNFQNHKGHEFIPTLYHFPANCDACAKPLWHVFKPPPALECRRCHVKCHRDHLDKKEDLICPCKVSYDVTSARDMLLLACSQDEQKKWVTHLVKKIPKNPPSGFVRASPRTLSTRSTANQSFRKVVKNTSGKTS
Mitogen-activated protein kinase kinase kinase 11 (Homo sapiens), sequence (Q16584 whole entry, looked up): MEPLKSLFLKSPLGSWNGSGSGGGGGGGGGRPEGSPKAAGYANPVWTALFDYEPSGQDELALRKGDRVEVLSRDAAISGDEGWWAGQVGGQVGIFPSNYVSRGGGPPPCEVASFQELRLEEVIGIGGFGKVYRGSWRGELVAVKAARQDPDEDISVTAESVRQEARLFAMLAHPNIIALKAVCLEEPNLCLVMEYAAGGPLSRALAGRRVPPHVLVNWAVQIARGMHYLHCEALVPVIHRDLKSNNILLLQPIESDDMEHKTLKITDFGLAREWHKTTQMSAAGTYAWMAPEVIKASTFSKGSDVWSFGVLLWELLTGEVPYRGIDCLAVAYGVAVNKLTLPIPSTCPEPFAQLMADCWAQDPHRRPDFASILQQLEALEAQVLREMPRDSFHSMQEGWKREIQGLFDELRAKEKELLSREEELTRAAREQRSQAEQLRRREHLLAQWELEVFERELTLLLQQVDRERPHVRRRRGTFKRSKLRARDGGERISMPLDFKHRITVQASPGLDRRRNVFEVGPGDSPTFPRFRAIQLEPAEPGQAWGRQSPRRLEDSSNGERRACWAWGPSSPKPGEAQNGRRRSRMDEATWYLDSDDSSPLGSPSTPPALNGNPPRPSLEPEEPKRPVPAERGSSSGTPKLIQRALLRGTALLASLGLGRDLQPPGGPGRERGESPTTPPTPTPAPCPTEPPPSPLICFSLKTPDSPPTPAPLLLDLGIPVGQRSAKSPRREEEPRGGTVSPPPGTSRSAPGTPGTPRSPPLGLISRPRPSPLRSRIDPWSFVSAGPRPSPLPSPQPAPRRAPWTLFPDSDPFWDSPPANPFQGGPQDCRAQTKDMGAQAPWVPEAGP

CN1CCN(c2cnc3c(C4CCN(C(=O)c5ccc(OC(F)(F)F)cc5N)CC4)ncnc3c2)CC1 [BAY-885]
inactive: [1] 106% | [2] 100% | [3] 111% | [4] 107% | [5] 118% | [6] 113% | [7] 113% | [8] 130% | [9] 99% | [10] 101% | [11] 106% | [12] 105% | [13] 106% | [14] 100% | [15] 112% | [16] 104% | [17] 112% | [18] 112%
